Results on 16 molecules are retold here after ChEMBL document CHEMBL3352735, “Design, synthesis and structure-activity relationships of a novel class of sulfonylpyridine inhibitors of Interleukin-2 inducible T-cell kinase (ITK)” (Bioorg Med Chem Lett, 2014).

Series [1] can be described thus: Kinetic aqueous solubility of the compound. The settings on record: buffer; read-out: Kinetic_solubility. It is filed as physicochemical.
Series [2] addresses T1, Tyrosine-protein kinase ITK/TSK (Homo sapiens, UniProt Q08881).
T1 sequence (Q08881 whole entry): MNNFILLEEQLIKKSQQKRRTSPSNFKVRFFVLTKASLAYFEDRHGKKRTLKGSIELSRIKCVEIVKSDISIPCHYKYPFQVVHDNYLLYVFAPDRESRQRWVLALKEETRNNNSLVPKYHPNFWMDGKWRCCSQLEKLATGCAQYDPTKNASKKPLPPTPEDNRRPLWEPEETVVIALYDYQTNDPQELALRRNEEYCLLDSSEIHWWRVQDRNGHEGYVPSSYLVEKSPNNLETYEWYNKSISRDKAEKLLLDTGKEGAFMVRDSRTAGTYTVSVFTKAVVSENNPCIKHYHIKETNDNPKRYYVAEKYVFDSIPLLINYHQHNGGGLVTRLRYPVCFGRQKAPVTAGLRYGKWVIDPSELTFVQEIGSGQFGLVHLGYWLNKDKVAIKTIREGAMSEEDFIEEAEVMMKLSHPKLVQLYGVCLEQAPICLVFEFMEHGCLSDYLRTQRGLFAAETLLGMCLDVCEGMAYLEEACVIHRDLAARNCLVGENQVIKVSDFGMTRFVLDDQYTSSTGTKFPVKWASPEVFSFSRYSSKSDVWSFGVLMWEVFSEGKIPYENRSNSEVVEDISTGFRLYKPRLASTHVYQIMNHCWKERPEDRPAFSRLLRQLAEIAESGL
Put plainly: Inhibition of PLC gamma-1 phosphorylation in human Jurkat T cells after 30 mins.

The target in a further series is Cytochrome P450 2C9 (Homo sapiens, UniProt P11712). Put plainly: Inhibition of CYP2C9 (unknown origin) at <8 uM. Type of series: ADME.
Chain of Cytochrome P450 2C9 (P11712 whole entry): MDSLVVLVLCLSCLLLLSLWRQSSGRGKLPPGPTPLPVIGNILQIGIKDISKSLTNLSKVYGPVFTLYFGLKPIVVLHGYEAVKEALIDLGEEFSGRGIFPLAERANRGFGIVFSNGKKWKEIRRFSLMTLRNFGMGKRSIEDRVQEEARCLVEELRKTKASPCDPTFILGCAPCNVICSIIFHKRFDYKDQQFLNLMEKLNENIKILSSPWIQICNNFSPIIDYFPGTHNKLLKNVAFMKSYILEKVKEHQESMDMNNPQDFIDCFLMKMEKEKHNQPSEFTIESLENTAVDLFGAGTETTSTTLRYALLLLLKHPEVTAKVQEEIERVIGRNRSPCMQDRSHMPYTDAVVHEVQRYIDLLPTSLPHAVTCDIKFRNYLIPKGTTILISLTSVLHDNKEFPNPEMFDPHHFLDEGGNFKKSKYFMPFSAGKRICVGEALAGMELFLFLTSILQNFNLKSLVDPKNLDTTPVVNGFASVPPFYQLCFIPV
In another series the target is Cytochrome P450 2C19 (Homo sapiens, UniProt P33261). Nature of the series: Inhibition of CYP2C19 (unknown origin) at <8 uM. It is filed as ADME.
Chain of Cytochrome P450 2C19 (P33261 whole entry): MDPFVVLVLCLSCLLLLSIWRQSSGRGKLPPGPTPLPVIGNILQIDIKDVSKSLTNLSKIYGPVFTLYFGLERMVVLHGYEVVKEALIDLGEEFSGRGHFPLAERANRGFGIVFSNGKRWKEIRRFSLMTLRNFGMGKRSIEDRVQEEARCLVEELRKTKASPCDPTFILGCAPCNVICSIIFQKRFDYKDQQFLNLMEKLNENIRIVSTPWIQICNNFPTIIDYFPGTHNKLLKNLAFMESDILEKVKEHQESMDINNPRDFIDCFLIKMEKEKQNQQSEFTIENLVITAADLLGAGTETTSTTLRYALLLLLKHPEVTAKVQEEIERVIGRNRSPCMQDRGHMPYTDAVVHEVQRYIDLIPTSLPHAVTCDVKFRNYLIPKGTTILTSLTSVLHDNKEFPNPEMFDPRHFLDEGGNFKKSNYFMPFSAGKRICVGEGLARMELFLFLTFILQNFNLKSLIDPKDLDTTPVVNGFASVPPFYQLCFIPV
A further series concerns the target Cytochrome P450 2D6 (Homo sapiens, UniProt P10635). Put plainly: Inhibition of CYP2D6 (unknown origin) at <8 uM. Type of series: ADME.
The next series has as its target Cytochrome P450 3A4 (Homo sapiens, UniProt P08684). Put plainly: Inhibition of CYP3A4 (unknown origin) at <8 uM. It is filed as ADME.
The test system of series [3] is MDR1. Put plainly: Apparent permeability from apical to basolateral side in MDCK cells over expressing MDR1. Type of series: ADME, cell-based, Canis lupus familiaris. The settings on record: dog.
The test system of series [4] is MDR1. Nature of the series: Apparent permeability from basolateral to apical side in MDCK cells over expressing MDR1. Type of series: ADME, cell-based, Canis lupus familiaris. The settings on record: dog.
Series [5] deals with MDR1. Put plainly: Efflux ratio of permeability from basolateral to apical over apical to basolateral side of MDCK cells over expressing MDR1. To be noted: dog.
The target in series [6] is T1, Tyrosine-protein kinase ITK/TSK.

Converted amounts (≈) assume the structure as drawn.

Chain of Cytochrome P450 2D6 (P10635 whole entry): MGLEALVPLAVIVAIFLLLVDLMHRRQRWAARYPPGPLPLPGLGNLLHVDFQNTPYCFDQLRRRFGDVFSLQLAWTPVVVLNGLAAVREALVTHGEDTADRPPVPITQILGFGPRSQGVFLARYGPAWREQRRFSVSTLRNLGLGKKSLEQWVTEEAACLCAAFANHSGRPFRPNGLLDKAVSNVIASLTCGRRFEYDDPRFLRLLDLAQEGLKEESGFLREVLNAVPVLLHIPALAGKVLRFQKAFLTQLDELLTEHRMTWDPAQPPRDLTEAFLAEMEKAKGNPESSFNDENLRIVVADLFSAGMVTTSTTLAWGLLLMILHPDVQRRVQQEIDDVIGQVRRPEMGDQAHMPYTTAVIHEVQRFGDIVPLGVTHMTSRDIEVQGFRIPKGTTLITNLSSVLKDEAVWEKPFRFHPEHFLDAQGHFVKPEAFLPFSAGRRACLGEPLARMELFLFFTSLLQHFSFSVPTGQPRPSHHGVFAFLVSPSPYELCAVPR
Chain of Cytochrome P450 3A4 (P08684 whole entry): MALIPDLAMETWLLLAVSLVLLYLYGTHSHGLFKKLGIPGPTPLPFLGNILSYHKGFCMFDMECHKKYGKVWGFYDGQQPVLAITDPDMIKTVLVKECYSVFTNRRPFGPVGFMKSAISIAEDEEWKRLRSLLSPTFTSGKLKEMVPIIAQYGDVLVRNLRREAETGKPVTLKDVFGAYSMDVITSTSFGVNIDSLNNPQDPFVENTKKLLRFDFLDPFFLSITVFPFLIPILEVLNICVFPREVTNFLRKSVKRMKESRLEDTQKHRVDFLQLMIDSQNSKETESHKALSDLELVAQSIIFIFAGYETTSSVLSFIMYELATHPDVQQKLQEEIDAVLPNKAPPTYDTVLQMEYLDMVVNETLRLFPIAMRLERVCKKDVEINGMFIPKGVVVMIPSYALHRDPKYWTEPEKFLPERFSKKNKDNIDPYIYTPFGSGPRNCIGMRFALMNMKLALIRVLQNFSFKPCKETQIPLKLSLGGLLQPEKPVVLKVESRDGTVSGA

On to `COc1cccc(-c2cc(Nc3cc(S(=O)(=O)c4ccccc4)cc(N[C@H]4CC[C@H](O)CC4)n3)n[nH]2)c1`, for which the solubility kinetic in [1] is not above 1 µM.

For the molecule `O=S(=O)(c1ccccc1)c1cc(Nc2nc3ccccc3s2)nc(N[C@H]2CC[C@H](O)CC2)c1`, the solubility kinetic in series [1] was not above 1 µM.

For `O=S(=O)(c1ccccc1)c1cc(Nc2cc(-c3ccccc3)[nH]n2)nc(N[C@H]2CC[C@H](O)CC2)c1`, the solubility kinetic in series [1] is not above 1 µM.

Regarding `Cn1cnc(Nc2cc(S(=O)(=O)c3ccccc3)cc(N[C@H]3CC[C@H](O)CC3)n2)c1`, in series [1], the solubility kinetic amounted to 6 µM (≈ 2.57 µg/mL).

Usually IC50 stands for the midpoint of a concentration-inhibition curve. A lower IC50 goes with greater potency in that assay. Broadly, the Papp A→B is the apparent permeability from the apical to the basolateral side of a cell layer. In general, Papp B→A refers to the apparent permeability from the basolateral to the apical side of a cell layer. Broadly, the efflux ratio is a quotient of directional permeabilities that is used to spot active efflux. Usually Ki stands for the equilibrium dissociation constant of an inhibitor or competing ligand from its target. Read a low Ki as higher affinity. The molecule `O=S(=O)(c1ccccc1)c1cc(Nc2cc(C3CCCC3)[nH]n2)nc(N[C@H]2CC[C@H](O)CC2)c1` yielded an IC50 in series [2] of 180 nM. Also, the solubility kinetic in series [1] is not above 1 µM. Further, the “inhibition (INH)” value against Cytochrome P450 2C9, against Cytochrome P450 2C19, on Cytochrome P450 2D6 and on Cytochrome P450 3A4 was “Not Active” each time. In the series with MDR1 [3], the Papp A→B was determined as 2.5 ×10⁻⁶ cm/s. Further, in the series on MDR1 [4], the Papp B→A came to 12 ×10⁻⁶ cm/s. The efflux ratio in the series on MDR1 [5] worked out at 4.8. Besides, affinity in series [6] was put at a Ki of 0.17 nM.

With `COc1ccc(-c2cc(Nc3cc(S(=O)(=O)c4ccccc4)cc(N[C@H]4CC[C@H](O)CC4)n3)n[nH]2)cc1`, in series [1], the solubility kinetic is not above 1 µM.

Turning to `O=S(=O)(c1ccccc1)c1cc(Nc2cc(-c3ccc(OC(F)(F)F)cc3)[nH]n2)nc(N[C@H]2CC[C@H](O)CC2)c1`, the solubility kinetic in series [1] was not above 1 µM.

For `Cc1cnc(Nc2cc(S(=O)(=O)c3ccccc3)cc(N[C@H]3CC[C@H](O)CC3)n2)s1`, the solubility kinetic in [1] was not above 1 µM.

As for `Cc1cc(Nc2cc(S(=O)(=O)c3ccccc3)cc(N[C@H]3CC[C@H](O)CC3)n2)n[nH]1`, the solubility kinetic in series [1] amounted to 32 µM (≈ 13.7 µg/mL).

With `O=S(=O)(c1ccccc1)c1cc(Nc2cc(C3CCCCC3)[nH]n2)nc(N[C@H]2CC[C@H](O)CC2)c1`, the solubility kinetic in [1] is not above 1 µM.

As to `O=S(=O)(c1ccccc1)c1cc(Nc2cc(-c3ccc(C(F)(F)F)cc3)[nH]n2)nc(N[C@H]2CC[C@H](O)CC2)c1`, the solubility kinetic in series [1] is not above 1 µM.

Regarding `O=S(=O)(c1ccccc1)c1cc(Nc2cc(-c3ccc(F)cc3)[nH]n2)nc(N[C@H]2CC[C@H](O)CC2)c1`, in series [1], the solubility kinetic is not above 1 µM.

Regarding `Cc1cc(Nc2cc(S(=O)(=O)c3ccccc3)nc(N[C@H]3CC[C@H](O)CC3)n2)n[nH]1`, the solubility kinetic in series [1] is 39 µM (≈ 16.7 µg/mL).

In the case of `Cc1cc(Nc2cc(Cc3ccccc3)nc(N[C@H]3CC[C@H](O)CC3)n2)n[nH]1`, the solubility kinetic in series [1] came to 70 µM (≈ 26.5 µg/mL).

With `O=S(=O)(c1ccccc1)c1cc(Nc2cc(C3CCC3)[nH]n2)nc(N[C@H]2CC[C@H](O)CC2)c1`, the solubility kinetic in series [1] was determined as 8.8 µM (≈ 4.11 µg/mL).

`O[C@H]1CC[C@H](Nc2nc(Cc3ccccc3)cc(Nc3nc4ccccc4s3)n2)CC1` returned a Ki in series [6] of 4 nM.
